# Laboratory results from ChEMBL document CHEMBL3792365, “Dioxol and dihydrodioxin analogs of 2- and 3-phenylacetonitriles as potent anti-cancer agents with nanomolar activity against a variety of human cancer cells” (2016).
# Columns and labels:
# Assay type in all cases: functional
# [1] = Growth inhibition of human SNB75 cells at 10 uM after 48 hrs by sulforhodamine B assay; conditions: SNB-75, 48 h, values are per cent of control
# [2] = Growth inhibition of human LOXIMVI cells at 10 uM after 48 hrs by sulforhodamine B assay; conditions: LOX IMVI, values are per cent of control
# M14 = test: Growth inhibition of human M14 cells at 10 uM after 48 hrs by sulforhodamine B assay; conditions: M14, 48 h, values are per cent of control
# MDA-MB-435 = test: Growth inhibition of human MDA-MB-435 cells at 10 uM after 48 hrs by sulforhodamine B assay; conditions: MDA-MB-435, 48 h, values are per cent of control
# SK-MEL-2 = test: Growth inhibition of human SK-MEL-2 cells at 10 uM after 48 hrs by sulforhodamine B assay; conditions: SK-MEL-2, 48 h, values are per cent of control
# SK-MEL-28 = test: Growth inhibition of human SK-MEL-28 cells at 10 uM after 48 hrs by sulforhodamine B assay; conditions: SK-MEL-28, 48 h, values are per cent of control
# SK-MEL-5 = test: Growth inhibition of human SK-MEL-5 cells at 10 uM after 48 hrs by sulforhodamine B assay; conditions: SK-MEL-5, 48 h, values are per cent of control
# [3] = Growth inhibition of human UACC62 cells at 10 uM after 48 hrs by sulforhodamine B assay; conditions: UACC-62, 48 h, values are per cent of control
# [4] = Growth inhibition of human IGROV1 cells at 10 uM after 48 hrs by sulforhodamine B assay; conditions: IGROV-1, 48 h, values are per cent of control
# [5] = Growth inhibition of human OVCAR4 cells at 10 uM after 48 hrs by sulforhodamine B assay; conditions: OVCAR-4, 48 h, values are per cent of control
# [6] = Growth inhibition of human OVCAR5 cells at 10 uM after 48 hrs by sulforhodamine B assay; conditions: OVCAR-5, 48 h, values are per cent of control
# [7] = Growth inhibition of human OVCAR8 cells at 10 uM after 48 hrs by sulforhodamine B assay; conditions: OVCAR-8, 48 h, values are per cent of control
# 786-0 = test: Growth inhibition of human 786-0 cells at 10 uM after 48 hrs by sulforhodamine B assay; conditions: 786-0, 48 h, values are per cent of control
# A498 = test: Growth inhibition of human A498 cells at 10 uM after 48 hrs by sulforhodamine B assay; conditions: A498, 48 h, values are per cent of control
# ACHN = test: Growth inhibition of human ACHN cells at 10 uM after 48 hrs by sulforhodamine B assay; conditions: values are per cent of control
# [8] = Growth inhibition of human Caki1 cells at 10 uM after 48 hrs by sulforhodamine B assay; conditions: CAKI-1, 48 h, values are per cent of control
# [9] = Growth inhibition of human RXF393 cells at 10 uM after 48 hrs by sulforhodamine B assay; conditions: RXF 393, 48 h, values are per cent of control
# SN12C = test: Growth inhibition of human SN12C cells at 10 uM after 48 hrs by sulforhodamine B assay; conditions: values are per cent of control
# [10] = Growth inhibition of human UO31 cells at 10 uM after 48 hrs by sulforhodamine B assay; conditions: UO-31, 48 h, values are per cent of control
# [11] = Growth inhibition of human DU145 cells at 10 uM after 48 hrs by sulforhodamine B assay; conditions: DU-145, 48 h, values are per cent of control
# MDA-MB-231 = test: Growth inhibition of human MDA-MB-231 cells at 10 uM after 48 hrs by sulforhodamine B assay; conditions: MDA-MB-231, 48 h, values are per cent of control
# [12] = Growth inhibition of human Hs 578T cells at 10 uM after 48 hrs by sulforhodamine B assay; conditions: values are per cent of control
# [13] = Growth inhibition of human BT549 cells at 10 uM after 48 hrs by sulforhodamine B assay; conditions: BT-549, 48 h, values are per cent of control
# K562 = test: Growth inhibition of human K562 cells at 10 uM after 48 hrs by sulforhodamine B assay; conditions: K562, 48 h, values are per cent of control
# SR = test: Growth inhibition of human SR cells at 10 uM after 48 hrs by sulforhodamine B assay; conditions: values are per cent of control
# A549 = test: Growth inhibition of human A549/ATCC cells at 10 uM after 48 hrs by sulforhodamine B assay; conditions: A549, 48 h, values are per cent of control
# [14] = Growth inhibition of human HOP62 cells at 10 uM after 48 hrs by sulforhodamine B assay; conditions: HOP-62, 48 h, values are per cent of control
# NCI-H226 = test: Growth inhibition of human NCI-H226 cells at 10 uM after 48 hrs by sulforhodamine B assay; conditions: NCI-H226, 48 h, values are per cent of control
# NCI-H23 = test: Growth inhibition of human NCI-H23 cells at 10 uM after 48 hrs by sulforhodamine B assay; conditions: NCI-H23, 48 h, values are per cent of control
# NCI-H322M = test: Growth inhibition of human NCI-H322M cells at 10 uM after 48 hrs by sulforhodamine B assay; conditions: values are per cent of control
# NCI-H460 = test: Growth inhibition of human NCI-H460 cells at 10 uM after 48 hrs by sulforhodamine B assay; conditions: NCI-H460, 48 h, values are per cent of control
# [15] = Growth inhibition of human COLO205 cells at 10 uM after 48 hrs by sulforhodamine B assay; conditions: COLO 205, 48 h, values are per cent of control
# [16] = Growth inhibition of human HCT116 cells at 10 uM after 48 hrs by sulforhodamine B assay; conditions: HCT-116, 48 h, values are per cent of control
# [17] = Growth inhibition of human HCT15 cells at 10 uM after 48 hrs by sulforhodamine B assay; conditions: HCT-15, 48 h, values are per cent of control
# HT-29 = test: Growth inhibition of human HT-29 cells at 10 uM after 48 hrs by sulforhodamine B assay; conditions: HT-29, 48 h, values are per cent of control
# KM12 = test: Growth inhibition of human KM12 cells at 10 uM after 48 hrs by sulforhodamine B assay; conditions: KM12, 48 h, values are per cent of control
# [18] = Growth inhibition of human SW620 cells at 10 uM after 48 hrs by sulforhodamine B assay; conditions: SW-620, 48 h, values are per cent of control
# [19] = Growth inhibition of human SF295 cells at 10 uM after 48 hrs by sulforhodamine B assay; conditions: SF-295, 48 h, values are per cent of control
# [20] = Growth inhibition of human SF539 cells at 10 uM after 48 hrs by sulforhodamine B assay; conditions: SF-539, 48 h, values are per cent of control
# [21] = Growth inhibition of human SNB19 cells at 10 uM after 48 hrs by sulforhodamine B assay; conditions: SNB-19, 48 h, values are per cent of control
Structure (SMILES),"growth, % of control at 10 µM [1]","growth, % of control at 10 µM [2]","growth, % of control at 10 µM (M14)","growth, % of control at 10 µM (MDA-MB-435)","growth, % of control at 10 µM (SK-MEL-2)","growth, % of control at 10 µM (SK-MEL-28)","growth, % of control at 10 µM (SK-MEL-5)","growth, % of control at 10 µM [3]","growth, % of control at 10 µM [4]","growth, % of control at 10 µM [5]","growth, % of control at 10 µM [6]","growth, % of control at 10 µM [7]","growth, % of control at 10 µM (786-0)","growth, % of control at 10 µM (A498)","growth, % of control at 10 µM (ACHN)","growth, % of control at 10 µM [8]","growth, % of control at 10 µM [9]","growth, % of control at 10 µM (SN12C)","growth, % of control at 10 µM [10]","growth, % of control at 10 µM [11]",also measured
N#C/C(=C\c1cc2ccccc2s1)c1ccc2c(c1)OCO2,0.5%,19.9%,20.6%,-37.2%,29.2%,60.6%,16.6%,24%,34.3%,60.2%,50.4%,14%,44.7%,-7.5%,38.8%,41.2%,-2.6%,25.3%,34.9%,5.1%,"growth, % of control at 10 µM (MDA-MB-231): 24.3%; growth, % of control at 10 µM [12]: -5.4%; growth, % of control at 10 µM [13]: 56.4%; growth, % of control at 10 µM (K562): 18.8%; growth, % of control at 10 µM (SR): 13.5%; growth, % of control at 10 µM (A549): 17.2%; growth, % of control at 10 µM [14]: 58.5%; growth, % of control at 10 µM (NCI-H226): 28.7%; growth, % of control at 10 µM (NCI-H23): 31.1%; growth, % of control at 10 µM (NCI-H322M): 40.9%; growth, % of control at 10 µM (NCI-H460): 9.7%; growth, % of control at 10 µM [15]: -33.9%; growth, % of control at 10 µM [16]: 11.6%; growth, % of control at 10 µM [17]: 20.4%; growth, % of control at 10 µM (HT-29): 5%; growth, % of control at 10 µM (KM12): 6%; growth, % of control at 10 µM [18]: 21%; growth, % of control at 10 µM [19]: 2.9%; growth, % of control at 10 µM [20]: -10.1%; growth, % of control at 10 µM [21]: 46.4%"
COc1ccc(/C=C(\C#N)c2ccc3c(c2)OCO3)c(Cl)c1OC,73.5%,77.3%,72.4%,15.3%,80.1%,91%,85%,56.6%,77.1%,98.6%,92.8%,100%,84.8%,72.5%,92.3%,79.3%,78.3%,83.5%,74.9%,104%,"growth, % of control at 10 µM (MDA-MB-231): 82.3%; growth, % of control at 10 µM [12]: 81.9%; growth, % of control at 10 µM [13]: 64.1%; growth, % of control at 10 µM (K562): 39.2%; growth, % of control at 10 µM (SR): 51.1%; growth, % of control at 10 µM (A549): 84.7%; growth, % of control at 10 µM [14]: 87.2%; growth, % of control at 10 µM (NCI-H226): 85%; growth, % of control at 10 µM (NCI-H23): 85%; growth, % of control at 10 µM (NCI-H322M): 97.8%; growth, % of control at 10 µM (NCI-H460): 92.6%; growth, % of control at 10 µM [15]: 85%; growth, % of control at 10 µM [16]: 71.4%; growth, % of control at 10 µM [17]: 63.9%; growth, % of control at 10 µM (HT-29): 70.3%; growth, % of control at 10 µM (KM12): 69.2%; growth, % of control at 10 µM [18]: 62.3%; growth, % of control at 10 µM [19]: 91.1%; growth, % of control at 10 µM [20]: 91.8%; growth, % of control at 10 µM [21]: 89.6%"
COc1cc(/C=C(\C#N)c2ccc3c(c2)OCO3)cc(OC)c1,68.9%,103%,99.5%,100%,94.4%,106%,97.3%,86.4%,87.1%,82.9%,111%,92.3%,94.5%,88.9%,108%,96.5%,106%,95.3%,78.6%,94.4%,"growth, % of control at 10 µM (MDA-MB-231): 92.5%; growth, % of control at 10 µM [12]: 115%; growth, % of control at 10 µM [13]: 86.4%; growth, % of control at 10 µM (K562): 98.7%; growth, % of control at 10 µM (SR): 82%; growth, % of control at 10 µM (A549): 84.6%; growth, % of control at 10 µM [14]: 92.3%; growth, % of control at 10 µM (NCI-H226): 99.8%; growth, % of control at 10 µM (NCI-H23): 96.6%; growth, % of control at 10 µM (NCI-H322M): 89.5%; growth, % of control at 10 µM (NCI-H460): 102%; growth, % of control at 10 µM [15]: 97.7%; growth, % of control at 10 µM [16]: 96.3%; growth, % of control at 10 µM [17]: 102%; growth, % of control at 10 µM (HT-29): 92.4%; growth, % of control at 10 µM (KM12): 94.6%; growth, % of control at 10 µM [18]: 102%; growth, % of control at 10 µM [19]: 99.2%; growth, % of control at 10 µM [20]: 104%; growth, % of control at 10 µM [21]: 101%"
